The results in this text go back to patent publication US12624018B1, “Inhibitors of RIPK2 and medical uses thereof” (Odyssey Therapeutics, Inc., priority 2022, dated 2026).

Broadly, the IC50 is the concentration needed to halve the response being measured.

For the assay, the target named is T1, RIPK2 enzyme (Homo sapiens, UniProt O43353).
T1 construct: purchased Carna 09-128
T1 sequence (O43353 1-299 limits assumed): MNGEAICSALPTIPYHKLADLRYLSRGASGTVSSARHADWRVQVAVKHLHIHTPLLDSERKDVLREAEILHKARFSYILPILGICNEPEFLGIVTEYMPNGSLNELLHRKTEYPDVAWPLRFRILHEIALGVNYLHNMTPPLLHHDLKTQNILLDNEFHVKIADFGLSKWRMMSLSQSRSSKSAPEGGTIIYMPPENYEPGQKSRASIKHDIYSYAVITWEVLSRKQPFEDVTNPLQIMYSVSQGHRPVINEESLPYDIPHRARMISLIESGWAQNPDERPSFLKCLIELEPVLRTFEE
Kind of assay: RIPK2 inhibition (ADP-Glo Kinase Assay). The format is biochemical. The settings on record: RIPK2 5 nM, ATP 150 μM, MBP substrate, read-out: RIPK2 IC50. The method, boiled down: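 Human RIPK2 (5 nM) preincubated with compound 30 min at room temperature in 50 mM HEPES pH 7.5, 10 mM MgCl2, 2 mM DTT, 1 mM EGTA, 0.01% Brij-35, 0.05% BSA; native swine MBP as substrate. ADP formed quantified by ADP-Glo luminescence; percent inhibition relative to DMSO and no-enzyme controls.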
Turning to `Cc1cc(CC(=O)Nc2cnn(C(C)(C)C)c2)ccc1Oc1ccnc2ccc(OC3CCN(CC(F)F)CC3)cc12` [Compound 120, N-(1-(tert-butyl)-1H-pyrazol-4-yl)-2-(4-((6-((1-(2,2-difluoroethyl)piperidin-4-yl)oxy)quinolin-4-yl)oxy)-3-methylphenyl) acetamide], the IC50 is below 2.5 nM. Turning to `Cc1cc(CC(=O)Nc2cnn(C(C)(C)C)c2)ccc1Oc1ccnc2ccc(O[C@H]3CC[C@@H](N)CC3)cc12` [Compound 121, 2-(4-((6-(((1s,4s)-4-aminocyclo-hexyl)oxy)quinolin-4-yl)oxy)-3-methyl-phenyl)-N-(1-(tert-butyl)-1H-pyrazol-4-yl)acetamide], the IC50 was below 2.5 nM. The value for `Cc1cc(CC(=O)Nc2cnn(C(C)(C)C)c2)ccc1Oc1ccnc2ccc(O[C@H]3CC[C@H](N)CC3)cc12` [Compound 122, 2-(4-((6-(((1r,4r)-4-aminocyclohexyl)oxy)quinolin-4-yl)oxy)-3-methylphenyl)-N-(1-(tert-butyl)-1H-pyrazol-4-yl)acetamide] was below 2.5 nM; that for `Cc1cc(CC(=O)Nc2cnn(C(C)(C)C)c2)ccc1Oc1ccnc2ccc(O[C@H]3C[C@@H](N)C3)cc12` [Compound 123, 2-(4-((6-((1s,3s)-3-aminocyclo-butoxy)quinolin-4-yl)oxy)-3-methyl-phenyl)-N-(1-(tert-butyl)-1H-pyrazol-4-yl)acetamide] was below 2.5 nM; that for `Cc1cc(CC(=O)Nc2cnn(C(C)(C)C)c2)ccc1Oc1ccnc2ccc(O[C@H]3C[C@H](N)C3)cc12` [Compound 124, 2-(4-((6-((1r,3r)-3-aminocyclo-butoxy)quinolin-4-yl)oxy)-3-methyl-phenyl)-N-(1-(tert-butyl)-1H-pyrazol-4-yl)acetamide] was below 2.5 nM.

As to `CN1CCC(S(=O)(=O)c2ccc3nccc(Oc4ccc(CC(=O)Nc5cnn(C(C)(C)C)c5)c(F)c4)c3c2)CC1` [Compound 125, N-(1-(tert-butyl)-1H-pyrazol-4-yl)-2-(2-fluoro-4-((6-((1-methylpiperidin-4-yl)sulfonyl)quinolin-4-yl)oxy)phenyl)acetamide], the IC50 is below 2.5 nM. The value for `CN1CCN(S(=O)(=O)c2ccc3nccc(Oc4ccc(CC(=O)Nc5cnn(C(C)(C)C)c5)c(F)c4)c3c2)CC1` [Compound 126, N-(1-(tert-butyl)-1H-pyrazol-4-yl)-2-(2-fluoro-4-((6-((4-methylpiperazin-1-yl)sulfonyl)quinolin-4-yl)oxy)phenyl)acetamide] was below 2.5 nM; that for `CC(C)(C)n1cc(NC(=O)Cc2ccc(Oc3ccnc4ccc(S(=O)(=O)C5CCNCC5)cc34)cc2F)cn1` [Compound 127, N-(1-(tert-butyl)-1H-pyrazol-4-yl)-2-(2-fluoro-4-((6-(piperidin-4-ylsulfonyl)quinolin-4-yl)oxy)phenyl)acetamide] was below 2.5 nM. As to `CC(C)(C)n1cc(NC(=O)Cc2ccc(Oc3ccnc4ccc(S(=O)(=O)N5CCNCC5)cc34)cc2F)cn1` [Compound 128, N-(1-(tert-butyl)-1H-pyrazol-4-yl)-2-(2-fluoro-4-((6-(piperazin-1-ylsulfonyl)quinolin-4-yl)oxy)phenyl)acetamide], the IC50 is below 2.5 nM. For `[2H]C([2H])([2H])N1CCC(Oc2ccc3nccc(Oc4cnc(CC(=O)Nc5cnn(C(C)(C)C)c5)c(F)c4)c3c2)CC1` [Compound 129, N-(1-(tert-butyl)-1H-pyrazol-4-yl)-2-(3-fluoro-5-((6-((1-(methyl-d3)piperidin-4-yl)oxy)quinolin-4-yl)oxy)pyridin-2-yl) acetamide], the IC50 was determined as 4.4 nM. With `CCS(=O)(=O)c1ccc2nccc(Oc3ccc(CC(=O)Nc4cnn(C(C)(C)C)c4)c(F)c3)c2c1` [Compound 130, N-(1-(tert-butyl)-1H-pyrazol-4-yl)-2-(4-((6-(ethylsulfonyl)quinolin-4-yl)oxy)-2-fluorophenyl)acetamide] the figure was below 2.5 nM. With `CC(C)(C)n1cc(NC(=O)Cc2ccc(Oc3ccnc4ccc(S(=O)(=O)C5CC5)cc34)cc2F)cn1` [Compound 131, N-(1-(tert-butyl)-1H-pyrazol-4-yl)-2-(4-((6-(cyclopropylsulfonyl)quinolin-4-yl)oxy)-2-fluorophenyl)acetamide] the figure was below 2.5 nM. As for `CC(C)(C)n1cc(NC(=O)Cc2ccc(Oc3ccnc4ccc(S(=O)(=O)C5COC5)cc34)cc2F)cn1` [Compound 132, N-(1-(tert-butyl)-1H-pyrazol-4-yl)-2-(2-fluoro-4-((6-(oxetan-3-ylsulfonyl)quinolin-4-yl)oxy)phenyl)acetamide], the IC50 is below 2.5 nM. For the compound `CC(C)(C)n1cc(NC(=O)Cc2ccc(Oc3ncnc4ccc(OC5CCOCC5)cc34)cc2F)cn1` [Compound 133, N-(1-(tert-butyl)-1H-pyrazol-4-yl)-2-(2-fluoro-4-((6-((tetrahydro-2H-pyran-4-yl)oxy)quinazolin-4-yl)oxy)phenyl) acetamide], the IC50 was 10.9 nM. As for `CN1CCC(Oc2ccc3nccc(Oc4cnc(CC(=O)Nc5cc(C(C)(C)C)[nH]n5)c(F)c4)c3c2)CC1` [Compound 134, N-(5-(tert-butyl)-1H-pyrazol-3-yl)-2-(3-fluoro-5-((6-((1-methylpiperidin-4-yl)oxy)quinolin-4-yl)oxy)pyridin-2-yl)acetamide], the IC50 is below 2.5 nM. The value for `CC(C)(C)c1cc(NC(=O)Cc2ncc(Oc3ccnc4ccc(OC5CCNCC5)cc34)cc2F)n[nH]1` [Compound 135, N-(5-(tert-butyl)-1H-pyrazol-3-yl)-2-(3-fluoro-5-((6-(piperidin-4-yloxy)quinolin-4-yl)oxy)pyridin-2-yl)acetamide] was below 2.5 nM; that for `CN1CCC(Oc2ccc3nccc(Oc4ccc(CC(=O)Nc5cc(C(C)(C)C)[nH]n5)c(F)c4)c3c2)CC1` [Compound 136, N-(5-(tert-butyl)-1H-pyrazol-3-yl)-2-(2-fluoro-4-((6-((1-methyl-piperidin-4-yl)oxy)quinolin-4-yl)oxy)phenyl) acetamide] was below 2.5 nM; that for `CC(C)(C)c1cc(NC(=O)Cc2ccc(Oc3ccnc4ccc(OC5CCNCC5)cc34)cc2F)n[nH]1` [Compound 137, N-(5-(tert-butyl)-1H-pyrazol-3-yl)-2-(2-fluoro-4-((6-(piperidin-4-yloxy)quinolin-4-yl)oxy)phenyl) acetamide] was below 2.5 nM. The value for `COC(C)(C)c1ccc2nccc(Oc3cnc(CC(=O)Nc4cnn(C(C)(C)C)c4)c(F)c3)c2c1` [Compound 138, N-(1-(tert-butyl)-1H-pyrazol-4-yl)-2-(3-fluoro-5-((6-(2-methoxypropan-2-yl)quinolin-4-yl)oxy)pyridin-2-yl)acetamide] was 5.2 nM; that for `CN1CCC(Cc2ccc3nccc(Oc4cnc(CC(=O)Nc5cnn(C(C)(C)C)c5)c(F)c4)c3c2)CC1` [Compound 139, N-(1-(tert-butyl)-1H-pyrazol-4-yl)-2-(3-fluoro-5-((6-((1-methylpiperidin-4-yl)methyl)quinolin-4-yl)oxy)pyridin-2-yl)acetamide] was 3.2 nM; that for `[2H]C([2H])([2H])n1nc(NC(=O)Cc2ccc(Oc3ccnc4ccc(S(C)(=O)=O)cc34)cc2F)cc1C(C)(C)C` [Compound 142, N-(5-(tert-butyl)-1-(methyl-d3)-1H-pyrazol-3-yl)-2-(2-fluoro-4-((6-(methylsulfonyl)quinolin-4-yl)oxy)phenyl)acetamide] was below 2.5 nM. With `CC(C)c1cc(NC(=O)Cc2ccc(Oc3ccnc4ccc(S(C)(=O)=O)cc34)cc2F)n[nH]1` [Compound 143, 2-(2-fluoro-4-((6-(methylsulfonyl)quinolin-4-yl)oxy)phenyl)-N-(5-isopropyl-1H-pyrazol-3-yl)acetamide] the figure was below 2.5 nM. `CC(C)c1cc(NC(=O)Cc2ccc(Oc3ccnc4ccc(S(C)(=O)=O)cc34)cc2F)nn1C` [Compound 144, 2-(2-fluoro-4-((6-(methylsulfonyl)quinolin-4-yl)oxy)phenyl)-N-(5-isopropyl-1-methyl-1H-pyrazol-3-yl)acetamide]: the IC50 was below 2.5 nM. The value for `CS(=O)(=O)c1ccc2nccc(Oc3ccc(CC(=O)Nc4cc(C5CC5)[nH]n4)c(F)c3)c2c1` [Compound 145, N-(5-cyclopropyl-1H-pyrazol-3-yl)-2-(2-fluoro-4-((6-(methylsulfonyl)quinolin-4-yl)oxy)phenyl)acetamide] was 3.1 nM. With `Cn1nc(NC(=O)Cc2ccc(Oc3ccnc4ccc(S(C)(=O)=O)cc34)cc2F)cc1C1CC1` [Compound 146, N-(5-cyclopropyl-1-methyl-1H-pyrazol-3-yl)-2-(2-fluoro-4-((6-(methylsulfonyl)quinolin-4-yl)oxy)phenyl)acetamide] the figure was below 2.5 nM; with `CCn1nc(NC(=O)Cc2ccc(Oc3ccnc4ccc(S(C)(=O)=O)cc34)cc2F)cc1C(C)(C)C` [Compound 147, N-(5-(tert-butyl)-1-ethyl-1H-pyrazol-3-yl)-2-(2-fluoro-4-((6-(methylsulfonyl)quinolin-4-yl)oxy)phenyl)acetamide], below 2.5 nM; with `CCn1nc(NC(=O)Cc2ccc(Oc3ccnc4ccc(S(C)(=O)=O)cc34)cc2F)cc1C(C)C` [Compound 148, N-(1-ethyl-5-isopropyl-1H-pyrazol-3-yl)-2-(2-fluoro-4-((6-(methylsulfonyl)quinolin-4-yl)oxy)phenyl)acetamide], below 2.5 nM.

As to `Cc1cc(CC(=O)Nc2cnn(C(C)(C)C)c2)ccc1Oc1ccnc2ccc(S(=O)(=O)C3CN(C)C3)cc12` [Compound 149, N-(1-(tert-butyl)-1H-pyrazol-4-yl)-2-(3-methyl-4-((6-((1-methylazetidin-3-yl)sulfonyl)quinolin-4-yl)oxy)phenyl)acetamide], the IC50 was below 2.5 nM. With `CC(=O)N1CCC(Oc2ccc3nccc(Oc4cnc(CC(=O)Nc5cnn(C(C)(C)C)c5)c(F)c4)c3c2)CC1` [Compound 150, 2-(5-((6-((1-acetylpiperidin-4-yl)oxy)quinolin-4-yl)oxy)-3-fluoropyridin-2-yl)-N-(1-(tert-butyl)-1H-pyrazol-4-yl)acetamide] the figure was 4.1 nM.
